Each structure is given as a SMILES string.

Consider 30 compounds from patent US20160340322A1 (NISSAN CHEMICAL INDUSTRIES, LTD., priority 2013, published 2016).

T1 sequence (O95180 whole entry): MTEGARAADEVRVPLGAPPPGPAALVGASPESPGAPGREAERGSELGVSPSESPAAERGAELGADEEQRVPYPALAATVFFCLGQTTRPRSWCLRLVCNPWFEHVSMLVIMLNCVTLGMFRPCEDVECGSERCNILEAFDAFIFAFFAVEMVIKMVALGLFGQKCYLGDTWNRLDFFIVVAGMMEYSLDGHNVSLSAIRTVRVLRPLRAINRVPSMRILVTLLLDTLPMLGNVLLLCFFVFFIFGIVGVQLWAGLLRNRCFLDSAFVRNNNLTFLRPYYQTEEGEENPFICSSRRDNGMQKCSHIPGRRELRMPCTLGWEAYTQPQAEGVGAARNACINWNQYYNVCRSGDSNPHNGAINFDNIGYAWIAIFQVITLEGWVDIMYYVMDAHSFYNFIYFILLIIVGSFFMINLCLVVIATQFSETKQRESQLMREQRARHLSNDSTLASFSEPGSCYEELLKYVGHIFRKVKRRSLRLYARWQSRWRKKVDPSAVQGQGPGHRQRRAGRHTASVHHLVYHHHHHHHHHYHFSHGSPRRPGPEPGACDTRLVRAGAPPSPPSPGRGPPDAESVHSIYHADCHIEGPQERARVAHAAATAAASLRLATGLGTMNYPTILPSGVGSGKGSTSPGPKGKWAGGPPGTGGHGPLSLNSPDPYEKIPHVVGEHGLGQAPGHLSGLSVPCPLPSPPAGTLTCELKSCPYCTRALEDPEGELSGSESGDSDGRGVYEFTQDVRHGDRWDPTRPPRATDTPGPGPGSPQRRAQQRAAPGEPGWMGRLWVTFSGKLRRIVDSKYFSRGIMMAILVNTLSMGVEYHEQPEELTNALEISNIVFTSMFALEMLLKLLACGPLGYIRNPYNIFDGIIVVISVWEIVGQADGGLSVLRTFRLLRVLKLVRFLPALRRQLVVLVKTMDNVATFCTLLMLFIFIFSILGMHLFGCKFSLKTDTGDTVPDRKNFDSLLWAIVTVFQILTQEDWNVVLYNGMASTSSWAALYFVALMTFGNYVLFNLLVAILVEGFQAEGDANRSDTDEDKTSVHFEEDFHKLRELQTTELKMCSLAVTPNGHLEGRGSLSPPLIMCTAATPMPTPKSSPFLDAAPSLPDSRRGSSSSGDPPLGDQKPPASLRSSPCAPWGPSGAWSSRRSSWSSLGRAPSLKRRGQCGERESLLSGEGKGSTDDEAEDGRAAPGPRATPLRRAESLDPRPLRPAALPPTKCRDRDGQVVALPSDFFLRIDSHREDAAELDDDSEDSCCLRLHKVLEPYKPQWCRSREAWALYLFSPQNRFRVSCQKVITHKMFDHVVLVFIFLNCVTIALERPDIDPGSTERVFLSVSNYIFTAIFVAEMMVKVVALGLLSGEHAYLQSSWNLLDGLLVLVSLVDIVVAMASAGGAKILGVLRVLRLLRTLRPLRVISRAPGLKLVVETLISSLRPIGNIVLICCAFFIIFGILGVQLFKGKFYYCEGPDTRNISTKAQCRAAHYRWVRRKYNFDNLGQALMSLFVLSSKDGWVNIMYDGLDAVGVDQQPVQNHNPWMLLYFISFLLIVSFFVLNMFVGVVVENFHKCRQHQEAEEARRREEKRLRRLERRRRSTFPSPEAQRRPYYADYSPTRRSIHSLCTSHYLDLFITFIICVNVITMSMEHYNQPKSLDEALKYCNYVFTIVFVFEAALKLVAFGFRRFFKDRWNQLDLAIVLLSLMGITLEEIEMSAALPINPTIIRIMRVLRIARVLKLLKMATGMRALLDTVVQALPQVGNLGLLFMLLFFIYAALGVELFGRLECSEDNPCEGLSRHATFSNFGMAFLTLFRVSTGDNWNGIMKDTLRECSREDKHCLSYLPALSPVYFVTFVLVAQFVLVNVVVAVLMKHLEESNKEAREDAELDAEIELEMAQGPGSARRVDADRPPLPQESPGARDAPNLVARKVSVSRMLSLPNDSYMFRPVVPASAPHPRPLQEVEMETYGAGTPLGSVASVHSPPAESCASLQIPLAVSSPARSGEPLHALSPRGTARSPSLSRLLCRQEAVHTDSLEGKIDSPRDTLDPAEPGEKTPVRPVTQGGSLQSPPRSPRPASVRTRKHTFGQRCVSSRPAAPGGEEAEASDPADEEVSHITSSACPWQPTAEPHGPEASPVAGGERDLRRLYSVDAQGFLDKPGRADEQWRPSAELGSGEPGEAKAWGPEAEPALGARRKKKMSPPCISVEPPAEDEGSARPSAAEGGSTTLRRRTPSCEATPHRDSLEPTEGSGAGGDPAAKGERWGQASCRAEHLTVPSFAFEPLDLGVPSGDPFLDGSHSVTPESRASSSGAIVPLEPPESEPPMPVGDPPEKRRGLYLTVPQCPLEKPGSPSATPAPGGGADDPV

This assay addresses T1, Human T-type calcium channel (Cav 3.2) (Homo sapiens, UniProt O95180).
T1 construct: Edward Perez-Reyes, University of Virginia, USA; host or cells: HEK293
Description: Calcium Influx Inhibition Assay. The assay is classed as cell-based. To be noted: human T-type calcium channel (Cav 3.2) expressing HEK293 cells; FLIPR Calcium 4 fluorescence; 30 min compound incubation; read-out: T-type calcium channel inhibition concentration IC50. As to the method:
1. Calcium Influx Inhibition Assay Human T-type calcium channel (Cav 3.2) expressing HEK293 cells were introduced from Prof. Edward Perez-Reyes, University of Virginia, USA. The calcium-sensitive fluorescent dye used was FLIPR Calcium 4 Assay Kit (Molecular Devices). To a black 96-well plate with a clear bottom coated with type I collagen, the human T-type calcium channel (Cav 3.2) expressing HEK293 cells were seeded and cultured overnight, and the culture medium was removed. A solution of the calcium-sensitive fluorescent dye was added, and the resultant plate was incubated at 37° C. in an atmosphere of 5% carbon dioxide for 30 minutes. To the plate, a diluted solution of a compound was added, and subjected to further incubation at 37° C. in an atmosphere of 5% carbon dioxide for 30 minutes. While fluorescence was continuously analyzed from the bottom with a FlexStation 3 (Molecular Devices), a calcium solution was added. […] Based on the rise value in the fluorescence from the base line, the inhibition percentage was calculated. The logarithms of compound concentrations were plotted with respect to the inhibition activities to obtain an IC50 value.
Regarding `O=c1nc(N2Cc3ccc(OC(F)F)cc3C(O)C2)cnn1Cc1ccc(C(F)(F)F)s1` (stereo not drawn), the IC50 came to 64 nM.

Turning to `O=c1nc(N2CCN(c3ccc(F)cc3)CC2)cnn1Cc1ccc(Cl)cc1` [Synthesis Example 1, 2-(4-Chlorobenzyl)-5-[4-(4-fluorophenyl)piperazin-1-yl]-1,2,4-triazin-3(2H)-one], the IC50 worked out at 220 nM.

In the case of `CCCCCCOc1ccc(Cn2ncc(N3CCN(c4ccc(F)cc4)CC3)nc2=O)cc1` [Synthesis Example 2, 5-[4-(4-Fluorophenyl)piperazin-1-yl]-2-[4-(hexyloxy)benzyl]-1,2,4-triazin-3(2H)-one], the IC50 came out at 38 nM.

As for `O=c1nc(N2CCN(c3ccc(F)cc3)CC2)cnn1Cc1ccc(OCc2ccc(Cl)cc2)cc1` [Synthesis Example 3, 2-{4-[(4-Chlorobenzyl)oxy]benzyl}-5-[4-(4-fluorophenyl)piperazin-1-yl]-1,2,4-triazin-3(2H)-one], the IC50 was found to be 200 nM.

Turning to `O=c1nc(N2CCN(c3ccc(F)cc3)CC2)cnn1Cc1ccc(OCc2ccc(F)cc2)cc1` [Synthesis Example 4, 2-{4-[(4-Fluorobenzyl)oxy]benzyl}-5-[4-(4-fluorophenyl)piperazin-1-yl]-1,2,4-triazin-3(2H)-one], the IC50 was 35 nM.

For `O=c1nc(N2CCN(c3ccc(F)cc3)CC2)cnn1Cc1ccc(C(F)(F)F)s1` [Synthesis Example 5, 5-[4-(4-Fluorophenyl)piperazin-1-yl]-2-{[5-(trifluoromethyl)thiophen-2-yl]methyl}-1,2,4-triazin-3(2H)-one], the IC50 was 27 nM.

With `O=c1nc(N2CC=C(c3ccc(F)cc3)CC2)cnn1Cc1ccc(C(F)(F)F)s1` [Synthesis Example 6, 5-[4-(4-Fluorophenyl)-5,6-dihydropyridine-1(2H)-yl]-2-{[5-(trifluoromethyl)thiophen-2-yl]methyl}-1,2,4-triazin-3(2H)-one], the IC50 stood at 24 nM.

Turning to `O=c1nc(N2CC=C(c3ccc(F)cc3)[C@@H](O)C2)cnn1Cc1ccc(C(F)(F)F)s1` [Synthesis Example 7, (R)-5-[4-(4-Fluorophenyl)-5-hydroxy-5,6-dihydropyridin-1(2H)-yl]-2-{[5-(trifluoromethyl)thiophene-2-yl]methyl}-1,2,4-triazin-3(2H)-one], the IC50 came to 6 nM.

As for `Cc1ccc(N2CCN(c3cnn(Cc4ccc(C(F)(F)F)s4)c(=O)n3)CC2)nc1` [Synthesis Example 8, 5-[4-(5-methylpyridin-2-yl)piperazin-1-yl]-2-{[5-(trifluoromethyl)thiophene-2-yl]methyl}-1,2,4-triazin-3(2H)-one], the IC50 was determined as 210 nM.

`O=c1nc(N2CCc3c([nH]c4cc(F)ccc34)C2)cnn1Cc1ccc(C(F)(F)F)s1` [Synthesis Example 9, 5-(7-Fluoro-3,4-dihydro-1H-pyrido[3,4-b]indol-2(9H)-yl)-2-{[5-(trifluoromethyl)thiophen-2-yl]methyl}-1,2,4-triazin-3(2H)-one]: the IC50 is 17 nM.

`O=c1nc(N2CCN(c3ccc(F)cc3)CC2)cnn1Cc1cnc(C(F)(F)F)s1` [Synthesis Example 10, 5-[4-(4-Fluorophenyl)piperazin-1-yl]-2-{[2-(trifluoromethyl)thiazol-5-yl]methyl}-1,2,4-triazin-3(2H)-one]: the IC50 amounted to 490 nM.

Turning to `O=c1nc(N2CC=C(c3ccc(F)cc3)[C@@H](O)C2)cnn1Cc1cnc(C(F)(F)F)s1` [Synthesis Example 11, (R)-5-[4-(4-Fluorophenyl)-5-hydroxy-5,6-dihydropyridin-1(2H)-yl]-2-{[2-(trifluoromethyl)thiazol-5-yl]methyl}-1,2,4-triazin-3(2H)-one], the IC50 worked out at 30 nM.

With `Cc1cc(C2=CCN(c3cnn(Cc4cnc(C(F)(F)F)s4)c(=O)n3)C[C@@H]2O)cs1` [Synthesis Example 12, (R)-5-[5-Hydroxy-4-(5-methylthiophen-3-yl)-5,6-dihydropyridin-1(2H)-yl]-2-{[2-(trifluoromethyl)thiazol-5-yl]methyl}-1,2,4-triazin-3(2H)-one], the IC50 is 26 nM.

Turning to `Cc1ccc(N2CCN(c3cnn(Cc4cnc(C(F)(F)F)s4)c(=O)n3)CC2)nc1` [Synthesis Example 13, 5-[4-(5-Methylpyridin-2-yl)piperazin-1-yl]-2-{[2-(trifluoromethyl)thiazol-5-yl]methyl}-1,2,4-triazine-3(2H)-one], the IC50 stood at 6100 nM.

Regarding `O=c1nc(N2CCc3c([nH]c4cc(F)ccc34)C2)cnn1Cc1cnc(C(F)(F)F)s1` [Synthesis Example 14, 5-(7-Fluoro-3,4-dihydro-1H-pyrido[3,4-b]indol-2(9H)-yl)-2-{[2-(trifluoromethyl)thiazol-5-yl]methyl}-1,2,4-triazin-3(2H)-one], the IC50 worked out at 39 nM.

As to `Cc1cc(C2=CCN(c3cnn(Cc4ccc(C(F)(F)F)s4)c(=O)n3)C[C@@H]2O)cs1` [Synthesis Example 15, (R)-5-[5-Hydroxy-4-(5-methylthiophen-3-yl)-5,6-dihydropyridin-1(2H)-yl]-2-{[5-(trifluoromethyl)thiophen-2-yl]methyl}-1,2,4-triazin-3(2H)-one], the IC50 was 1 nM.

For `CCOc1ccc2c(c1)C(O)CN(c1cnn(Cc3ccc(C(F)(F)F)s3)c(=O)n1)C2` (stereo not drawn) [Synthesis Example 16], the IC50 is 180 nM.

For `Cc1csc(C2=CCN(c3cnn(Cc4cnc(C(F)(F)F)s4)c(=O)n3)C[C@@H]2O)c1` [Synthesis Example 17], the IC50 worked out at 200 nM.

As for `CCOc1ccc2c(c1)C(O)CN(c1cnn(Cc3cnc(C(F)(F)F)s3)c(=O)n1)C2` (stereo not drawn) [Synthesis Example 18, 5-[6-Ethoxy-4-hydroxy-3,4-dihydroisoquinolin-2(1H)-yl]-2-{[2-(trifluoromethyl)thiazol-5-yl]methyl}-1,2,4-triazin-3(2H)-one], the IC50 was determined as 2900 nM.

For `COc1ccc2c(c1)CCN(c1cnn(Cc3cnc(C(F)(F)F)s3)c(=O)n1)C2C` (stereo not drawn) [Synthesis Example 19], the IC50 came out at 2200 nM.

Regarding `O=c1nc(N2CCN(c3ccc(Cl)cc3)CC2)cnn1Cc1cnc(C(F)(F)F)s1` [Synthesis Example 20, 5-[4-(4-Chlorophenyl)piperazin-1-yl]-2-{[2-(trifluoromethyl)thiazol-5-yl]methyl}-1,2,4-triazin-3(2H)-one], the IC50 was 190 nM.

`O=c1nc(N2CCN(c3ccc(F)c(Cl)c3)CC2)cnn1Cc1cnc(C(F)(F)F)s1` [Synthesis Example 21, 5-[4-(3-Chloro-4-fluorophenyl)piperazin-1-yl]-2-{[2-(trifluoromethyl)thiazol-5-yl]methyl}-1,2,4-triazin-3(2H)-one]: the IC50 came to 230 nM.

For the compound `O=c1nc(N2CC=C(c3ccc(F)cc3)C(F)C2)cnn1Cc1cnc(C(F)(F)F)s1` (stereo not drawn) [Synthesis Example 22, 5-[5-Fluoro-4-(4-fluorophenyl)-5,6-dihydropyridin-(2H)-yl]-2-{[2-(trifluoromethyl)thiazol-5-yl]methyl}-1,2,4-triazin-3(2H)-one], the IC50 came to 120 nM.

Consider `Cc1cc(N2CCN(c3cnn(Cc4cnc(C(F)(F)F)s4)c(=O)n3)CC2)cs1` [Synthesis Example 23, 5-[4-(5-Methylthiophen-3-yl)piperazin-1-yl]-2-{[2-(trifluoromethyl)thiazol-5-yl]methyl}-1,2,4-triazin-3(2H)-one], for which the IC50 worked out at 670 nM.

Consider `Cn1cc(C2=CCN(c3cnn(Cc4cnc(C(F)(F)F)s4)c(=O)n3)C[C@@H]2O)cn1` [Synthesis Example 24, (R)-5-[5-Hydroxy-4-(1-methyl-1H-pyrazol-4-yl)-5,6-dihydropyridin-1(2H)-yl]-2-{[2-(trifluoromethyl)thiazol-5-yl]methyl}-1,2,4-triazin-3(2H)-one], for which the IC50 amounted to 4900 nM.

As for `O=c1nc(N2Cc3ccc(O)cc3C(O)C2)cnn1Cc1ccc(C(F)(F)F)s1` (stereo not drawn) [Synthesis Example 25, 5-[4,6-Dihydroxy-3,4-dihydroisoquinolin-2(1H)-yl]-2-{[5-(trifluoromethyl)thiophen-2-yl]methyl}-1,2,4-triazin-3(2H)-one], the IC50 amounted to 1800 nM.

In the case of `O=c1nc(N2CC=C(c3ccc(F)cc3)[C@@H](O)C2)cnn1Cc1ccc(C(F)(F)F)o1` [Synthesis Example 27, (R)-5-[4-(4-Fluorophenyl)-5-hydroxy-5,6-dihydropyridin-1(2H)-yl]-2-{[5-(trifluoromethyl)furan-2-yl]methyl}-1,2,4-triazin-3(2H)-one], the IC50 was 130 nM.

For `O=c1nc(N2CC=C(c3ccc(F)cc3)[C@@H](O)C2)cnn1Cc1ccc(OC(F)F)nc1` [Synthesis Example 28, (R)-2-{[6-(Difluoromethoxy)pyridin-3-yl]methyl}-5-[4-(4-fluorophenyl)-5-hydroxy-5,6-dihydropyridin-1(2H)-yl]-1,2,4-triazin-3(2H)-one], the IC50 turned out to be 94 nM.

As for `COc1nc(C2=CCN(c3cnn(Cc4ccc(C(F)(F)F)s4)c(=O)n3)C[C@@H]2O)ccc1Cl` [Synthesis Example 29, (R)-5-[5-Chloro-5′-hydroxy-6-methoxy-5′,6′-dihydro-(2,4′-bipyridine)-1′(2′H)-yl]-2-{[5-(trifluoromethyl)thiophen-2-yl]methyl}-1,2,4-triazin-3(2H)-one], the IC50 is 12 nM.

Turning to `Cc1cc(F)ccc1C1=CCN(c2cnn(Cc3ccc(C(F)(F)F)s3)c(=O)n2)C[C@@H]1O` [Synthesis Example 30, (R)-5-[4-(4-Fluoro-2-methylphenyl)-5-hydroxy-5,6-dihydropyridin-1(2H)-yl]-2-{[5-(trifluoromethyl)thiophen-2-yl]methyl}-1,2,4-triazin-3(2H)-one], the IC50 was 72 nM.
